# From patent US20250122160A1, “PROTEIN TYROSINE PHOSPHATASE INHIBITORS AND METHODS OF USE THEREOF” (Calico Life Sciences LLC, priority 0001, published 2025)
# Experiments:
# [1] = target: T1, His tagged PTPN2 (TC45) protein (Homo sapiens, UniProt P17706); test: Mobility shift assay (MSA) to determine potency of PTPN2 inhibitors; assay type: biochemical; details: 0.5 nM enzyme, 2 μM substrate
# T1 construct: made in house
# T1 sequence (P17706 with tags, fused parts or gaps isoform P17706-2): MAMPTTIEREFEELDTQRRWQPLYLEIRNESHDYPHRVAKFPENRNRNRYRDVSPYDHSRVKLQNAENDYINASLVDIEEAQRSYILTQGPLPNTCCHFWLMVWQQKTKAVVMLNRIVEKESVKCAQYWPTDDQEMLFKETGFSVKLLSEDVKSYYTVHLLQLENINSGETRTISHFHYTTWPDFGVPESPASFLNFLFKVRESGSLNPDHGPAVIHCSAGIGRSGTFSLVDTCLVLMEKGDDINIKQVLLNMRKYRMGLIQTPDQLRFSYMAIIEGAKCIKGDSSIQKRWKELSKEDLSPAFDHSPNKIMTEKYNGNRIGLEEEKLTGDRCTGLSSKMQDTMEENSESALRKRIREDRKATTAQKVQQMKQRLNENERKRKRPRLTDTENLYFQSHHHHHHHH
# Procedure: Compound activity was determined using in house His tagged PTPN2 (TC45) protein (SEQ ID NO: 1) in an in vitro enzymatic reaction. The enzymatic assay used to determine activity was a mobility shift assay using a LabChip EZ Reader by Caliper Life Sciences. The enzymatic reaction was carried out in assay buffer (50 mM HEPES pH 7.5, 1 mM EGTA, 10 mM EDTA, 0.01% Tween® 20, and 2 mM DTT). The compounds were dispensed on a white 384 well ProxiPlate™ (PerkinElmer Catalog #6008289) plate using the Labcyte Echo at varying concentrations (12 point, 1:3 dilution). The enzyme (at 0.5 nM) was incubated with compound for 10 minutes at room temperature. Then the substrate (phosphorylated insulin receptor probe sequence: ((OG488)-(NH—CH2—CH2—O—CH2—CH2—O—CH2—CO)-T-R-D-I-(PY)-E-T-D-Y—Y—R—K—K—NH2) (SEQ ID NO: 2) was added at 2 μM to the plates and incubated for another 10 minutes at room temperature. Finally, a quench solution (water and 4-bromo-3-(2-oxo-2-propoxyethoxy)-5-(3-{[1-(phenylmethanesulfonyl)piperidin-4-yl]amino}phenyl)thiophene-2-carboxylic acid) was added to the plates, which were then run on the EZ Reader (excitation 488 nm, emission 530 nm) to measure % conversion (the amount of phosphorylated substrate which was de-phosphorylated by PTPN2). […] The % inhibition was then used to calculate the IC50 values.
# [2] = target: T2, His tagged full-length PTPN1 protein (Homo sapiens, UniProt P18031); test: Mobility shift assay (MSA) to determine potency of PTPN1 inhibitors; assay type: biochemical; details: 0.5 nM enzyme, 2 μM substrate
# T2 construct: made in house
# T2 sequence (P18031 with tags, fused parts or gaps): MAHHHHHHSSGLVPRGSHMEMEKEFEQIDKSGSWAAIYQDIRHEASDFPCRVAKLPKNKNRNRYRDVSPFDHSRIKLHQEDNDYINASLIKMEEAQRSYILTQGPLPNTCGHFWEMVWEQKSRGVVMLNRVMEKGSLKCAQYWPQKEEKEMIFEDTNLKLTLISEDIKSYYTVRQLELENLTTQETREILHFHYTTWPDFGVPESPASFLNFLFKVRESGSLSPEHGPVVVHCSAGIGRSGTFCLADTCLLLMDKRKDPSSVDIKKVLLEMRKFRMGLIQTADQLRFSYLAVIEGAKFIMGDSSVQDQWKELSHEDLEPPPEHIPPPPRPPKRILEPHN
# Procedure: Compound activity was determined using in house His tagged full-length PTPN1 protein (SEQ ID NO: 3) in an in vitro enzymatic reaction. The enzymatic assay used to determine activity is a mobility shift assay using a LabChip EZ Reader by Caliper Life Sciences. The enzymatic reaction was carried out in assay buffer (50 mM HEPES pH 7.5, 1 mM EGTA, 10 mM EDTA. 0.01% Tween® 20, and 2 mM DTT). The compounds were dispensed on a white 384 well ProxiPlate™ (PerkinElmer Cat #6008289) plate using a Labcyte Echo® liquid handler at varying concentrations (12 point, 1:3 dilution). The enzyme (at 0.5 nM) was incubated with compound for 10 minutes at room temperature. Then the substrate (phosphorylated insulin receptor probe sequence: ((OG488)-(NH—CH2—CH2—O—CH2—CH2—O—CH2—CO)-T-R-D-I-(PY)-E-T-D-Y—Y—R—K—K—NH2) (SEQ ID NO: 2) was added at 2 μM to the plates and incubated for another 10 minutes at room temperature. Finally, a quench solution (water and 4-bromo-3-(2-oxo-2-propoxyethoxy)-5-(3-{[1-(phenylmethanesulfonyl)piperidin-4-yl]amino}phenyl)thiophene-2-carboxylic acid) was added to the plates, which were then run on the EZ Reader (excitation 488 nm, emission 530 nm) to measure % conversion (the amount of phosphorylated substrate which was de-phosphorylated by PTPN1). […] The % inhibition was then used to calculate the IC50 values.
Compound,IC50 [2] [nM],IC50 [1] [nM]
Cc1nn(CC(F)F)c(C)c1CCN1Cc2c(cc(O)c(N3CC(=O)NS3(=O)=O)c2F)C(F)(F)C1 [Compound 226],10 to 100,10 to 100
O=C1CN(c2c(O)cc3c(c2F)CN(CC2CCNCC2)CC3)S(=O)(=O)N1 [Compound 228],10 to 100,> 100
O=C1CN(c2c(O)cc3c(c2F)CN(CCC2CCNCC2)CC3)S(=O)(=O)N1 [Compound 230],10 to 100,> 100
O=C1CN(c2c(O)cc3c(c2F)CN(CC[C@H]2C[C@@H](OC(F)(F)F)C2)CC3)S(=O)(=O)N1 [Compound 231],1 to 10,10 to 100
Cc1nn(C)c(C)c1CN1CCC(N2CCc3cc(O)c(N4CC(=O)NS4(=O)=O)c(F)c3C2)CC1 [Compound 236],10 to 100,> 100
Cc1nn(C)c(C)c1CN1CC2(CC(N3CCc4cc(O)c(N5CC(=O)NS5(=O)=O)c(F)c4C3)C2)C1 [Compound 237],> 100,> 100
COC(CN1CCc2cc(O)c(N3CC(=O)NS3(=O)=O)c(F)c2C1)C1CCCC1 (stereo not drawn) [Compound 249],10 to 100,10 to 100
N[C@H](CCC1CCCCC1)C(=O)N1CCc2cc(O)c(N3CC(=O)NS3(=O)=O)c(F)c2C1 [Compound 250],10 to 100,10 to 100
O=C1CN(c2c(O)cc3c(c2F)CN(C(=O)NCC2CC2)CC3)S(=O)(=O)N1 [Compound 258],1 to 10,1 to 10
O=C1CN(c2c(O)cc3c(c2F)CN(C(=O)NCC2CCOCC2)CC3)S(=O)(=O)N1 [Compound 261],10 to 100,10 to 100
O=C1CN(c2c(O)cc3c(c2F)CN(C(=O)NCC2CC(F)(F)C2)CC3)S(=O)(=O)N1 [Compound 262],1 to 10,10 to 100
O=C1CN(c2c(O)cc3c(c2F)CN(C(=O)NCCC2CC2)CC3)S(=O)(=O)N1 [Compound 264],10 to 100,10 to 100
Cn1nccc1CNC(=O)N1CCc2cc(O)c(N3CC(=O)NS3(=O)=O)c(F)c2C1 [Compound 272],10 to 100,10 to 100
CC(C)(C)CNC(=O)N1CCc2cc(O)c(N3CC(=O)NS3(=O)=O)c(F)c2C1 [Compound 277],10 to 100,1 to 10
COCCCNC(=O)N1CCc2cc(O)c(N3CC(=O)NS3(=O)=O)c(F)c2C1 [Compound 278],10 to 100,10 to 100
COCC(C)(C)CNC(=O)N1CCc2cc(O)c(N3CC(=O)NS3(=O)=O)c(F)c2C1 [Compound 279],10 to 100,10 to 100
CN(C)CCNC(=O)N1CCc2cc(O)c(N3CC(=O)NS3(=O)=O)c(F)c2C1 [Compound 280],> 100,> 100
CC1(CCNC(=O)N2CCc3cc(O)c(N4CC(=O)NS4(=O)=O)c(F)c3C2)CC1 [Compound 281],10 to 100,10 to 100
COCCNC(=O)N1CCc2cc(O)c(N3CC(=O)NS3(=O)=O)c(F)c2C1 [Compound 282],10 to 100,10 to 100
O=C1CN(c2c(O)cc3c(c2F)CN(C(=O)NCC2COC2)CC3)S(=O)(=O)N1 [Compound 283],> 100,10 to 100
O=C1CN(c2c(O)cc3c(c2F)CN(C(=O)NCCc2ccccc2)CC3)S(=O)(=O)N1 [Compound 284],10 to 100,10 to 100
O=C1CN(c2c(O)cc3c(c2F)CN(CCCC2CCCCC2)CC3)S(=O)(=O)N1 [Compound 286],1 to 10,1 to 10
C[C@H]1Cc2c(cc(O)c(N3CC(=O)NS3(=O)=O)c2F)CN1 [Compound 289],> 100,10 to 100
O=C1CN(c2c(O)cc3c(c2F)CN(CCCc2cccc(C(F)(F)F)c2)CC3)S(=O)(=O)N1 [Compound 294],10 to 100,10 to 100
CC1(C)COC(CCCCN2CCc3cc(O)c(N4CC(=O)NS4(=O)=O)c(F)c3C2)OC1 [Compound 296],> 100,10 to 100

# Second part, led by results:
IC50 [2] [nM],Compound,IC50 [1] [nM]
> 100,Cc1nn(CCCC(C)(C)C#N)c(C)c1CN1CCc2cc(O)c(N3CC(=O)NS3(=O)=O)c(F)c2C1 [Compound 227],> 100
10 to 100,O=C1CN(c2c(O)cc3c(c2F)CN(CCCN2CCOCC2)CC3)S(=O)(=O)N1 [Compound 229],10 to 100
10 to 100,CN1CCN(CCCN2CCc3cc(O)c(N4CC(=O)NS4(=O)=O)c(F)c3C2)CC1 [Compound 232],> 100
10 to 100,CC(C)OCCN1CCc2cc(O)c(N3CC(=O)NS3(=O)=O)c(F)c2C1 [Compound 233],> 100
1 to 10,Cc1nn(C(F)F)c(C)c1CCN1CCc2cc(O)c(N3CC(=O)NS3(=O)=O)c(F)c2C1 [Compound 238],1 to 10
1 to 10,O=C1CN(c2c(O)cc3c(c2F)CN(CCC2(C(F)(F)F)CC2)CC3)S(=O)(=O)N1 [Compound 243],1 to 10
10 to 100,O=C1CN(c2c(O)cc3c(c2F)CN(CCCO)CC3)S(=O)(=O)N1 [Compound 244],10 to 100
10 to 100,C[C@H](N)CN1CCc2cc(O)c(N3CC(=O)NS3(=O)=O)c(F)c2C1 [Compound 245],10 to 100
10 to 100,C[C@@H](N)CN1CCc2cc(O)c(N3CC(=O)NS3(=O)=O)c(F)c2C1 [Compound 246],10 to 100
10 to 100,O=C1CN(c2c(O)cc3c(c2F)CN(CCN2CCNCC2)CC3)S(=O)(=O)N1 [Compound 247],10 to 100
10 to 100,CC(C)OCCCN1CCc2cc(O)c(N3CC(=O)NS3(=O)=O)c(F)c2C1 [Compound 251],10 to 100
> 100,Cn1cc(CCN2CCc3cc(O)c(N4CC(=O)NS4(=O)=O)c(F)c3C2)cn1 [Compound 252],> 100
1 to 10,Cc1nn(CC(F)F)c(C)c1CCN1CCc2cc(O)c(N3CC(=O)NS3(=O)=O)c(F)c2C1 [Compound 253],1 to 10
1 to 10,Cc1nn(C)cc1CCN1CCc2cc(O)c(N3CC(=O)NS3(=O)=O)c(F)c2C1 [Compound 256],1 to 10
1 to 10,Cc1c(CCN2CCc3cc(O)c(N4CC(=O)NS4(=O)=O)c(F)c3C2)cnn1C [Compound 257],1 to 10
1 to 10,Cc1nn(C(C)(C)C)c(C)c1CCN1CCc2cc(O)c(N3CC(=O)NS3(=O)=O)c(F)c2C1 [Compound 266],1 to 10
10 to 100,Cc1c(CNC(=O)N2CCc3cc(O)c(N4CC(=O)NS4(=O)=O)c(F)c3C2)cnn1C [Compound 271],10 to 100
1 to 10,Cc1nn(C(C)C)c(C)c1CCN1CCc2cc(O)c(N3CC(=O)NS3(=O)=O)c(F)c2C1 [Compound 273],1 to 10
1 to 10,CCn1nc(C)c(CCN2CCc3cc(O)c(N4CC(=O)NS4(=O)=O)c(F)c3C2)c1C [Compound 276],< 1
10 to 100,COCCCCN1CCc2cc(O)c(N3CC(=O)NS3(=O)=O)c(F)c2C1 [Compound 293],10 to 100
